Data set [1] deals with green peach aphid (Myzus persicae). Briefly: Test E: control of green peach aphid on radish plant, contact and/or systemic. The following applies: 144 h, sprayed at 250 ppm, visually assessed after 6 days. Type of data set: in vivo. From the text: For evaluating control of green peach aphid (Myzus persicae) through contact and/or systemic means, the test unit consisted of a small- open container with a 12–15-day-old radish plant inside. This was pre-infested by placing on a leaf of the test plant 30–40 aphids on a piece of leaf excised from a culture plant (cut-leaf method). The larvae moved onto the test plant as the leaf piece desiccated. After pre-infestation, the soil of the test unit was covered with a layer of sand.
(§1) Test compounds were formulated using a solution containing 10% acetone, 90% water and 300 ppm X-77® Spreader Lo-Foam Formula non-ionic surfactant containing alkylarylpolyoxyethylene, free fatty acids, glycols and isopropanol (Loveland Industries, Inc.). The formulated compounds were applied in 1 mL of liquid through a SUJ2 atomizer nozzle with ⅛ JJ custom body (Spraying Systems Co.) positioned 1.27 cm (0.5 inches) above the top of each test unit. All experimental compounds in this screen were sprayed at 250 ppm and replicated three times. After spraying of the formulated test compound, each test unit was allowed to dry for 1 hour and then a black, screened cap was placed on top. The test units were held for 6 days in a growth chamber at 19–21° C. and 50–70% relative humidity. Each test unit was then visually assessed for insect mortality.

The test system of data set [2] is cotton melon aphid (Aphis gossypii). Briefly: Test F: control of cotton melon aphid on cotton plant, contact and/or systemic. Type of data set: in vivo. As to conditions: 144 h, sprayed at 250 ppm, visually rated after 6 days. The method, then: as §1
For evaluating control of cotton melon aphid (Aphis gossypii) through contact and/or systemic means, the test unit consisted of a small open container with a 6–7-day-old cotton plant inside. This was pre-infested with 30–40 aphids on a piece of leaf according to the cut-leaf method described for Test E, and the soil of the test unit was covered with a layer of sand.
Test compounds were formulated and sprayed at 250 ppm as described for Test E. The applications were replicated three times. After spraying, the test units were maintained in a growth chamber and then visually rated as described for Test E.

Data set [3] concerns Potato Leafhopper (Empoasca fabae Harris). Kind of data set: Test H: control of Potato Leafhopper on Longio bean plant, contact and/or systemic. Type of data set: in vivo. As to conditions: 144 h, sprayed at 250 ppm, post-infested with adults, visually assessed after 6 days. The method, then: as §1
For evaluating control of Potato Leafhopper (Empoasca fabae Harris) through contact and/or systemic means, the test unit consisted of a small open container with a 5–6 day old Longio bean plant (primary leaves emerged) inside. White sand was added to the top of the soil and one of the primary leaves was excised prior to application. Test compounds were formulated and sprayed at 250 ppm and replicated three times as described for Test E. After spraying, the test units were allowed to dry for 1 hour before they were post-infested with 5 Potato Leafhoppers (18 to 21 day old adults). A black, screened cap is placed on the top of the cylinder. The test units were held for 6 days in a growth chamber at 19–21° C. and 50–70% relative humidity. Each test unit was then visually assessed for insect mortality.

Data set [4] deals with Corn Planthopper (Peregrinus maidis). Briefly: Test G: control of Corn Planthopper on corn (maize) plant, contact and/or systemic. It is filed as in vivo. As to conditions: 144 h, sprayed at 250 ppm, post-infested with nymphs, visually assessed after 6 days. The protocol:
as §1
For evaluating control of Corn Planthopper (Peregrinus maidis) through contact and/or systemic means, the test unit consisted of a small open container with a 3–4 day old corn (maize) plant (spike) inside. White sand was added to the top of the soil prior to application. […] Each test unit was then visually assessed for insect mortality.

A value given as a limit tells only on which side of the number the result lay.

As for `CC(C)N1CN(C(=O)c2cc(Cl)nn2-c2ncccc2Cl)c2c(Cl)cc(Cl)cc2C1=O` [Compound 8, 6,8-Dichloro-1-[[3-Chloro-1-(3-Chloro-2-pyridinyl)-1H-pyrazol-5-yl]carbonyl]-2,3-dihydro-3-(1-methylethyl)-4(H)-quinazolinone], the mortality at 250 ppm in data set [1], in data set [2] and in data set [3] was not below 80% throughout.
Turning to `O=C1c2cc(Cl)cc(Cl)c2N(C(=O)c2cc(Cl)nn2-c2ncccc2Cl)C(c2cccnc2)N1Cl` (centres unmarked) [Compound 22], the melting point lay in the range of 135 to 156 °C.
Same read-out and setting: with `Cc1cc(Cl)cc2c1N(C(=O)c1cc(Cl)nn1-c1ncccc1Cl)CN(C(C)C)C2=O` [Compound 14, 6-Chloro-1-[[3-Chloro-1-(3-Chloro-2-pyridinyl)-1H-pyrazol-5-yl]carbonyl]-2,3-dihydro-8-methyl-3-(1-methylethyl)-4(1H)-quinazolinone] the figure was 219 to 220 °C.
Take `Cc1cc(Cl)cc2c1N(C(=O)c1cc(Br)nn1-c1ncccc1Cl)CN(C(C)C)C2=O` [Compound 15, 1-[[3-Bromo-1-(3-Chloro-2-pyridinyl)-1H-pyrazol-5-yl]carbonyl]-6-Chloro-2,3-dihydro-8-methyl-3-(1-methylethyl)-4-(1H)-quinazolinone]: the mortality at 250 ppm in data set [2] and in data set [3] was not below 80% in each case.
Regarding `Cc1cc(Cl)cc2c1N(C(=O)c1cc(Cl)nn1-c1ncccc1Cl)CN(C)C2=O` [Compound 17, 6-Chloro-1-[[3-Chloro-1-(3-Chloro-2-pyridinyl)-1H-pyrazol-5-yl]carbonyl]-2,3-dihydro-3,8-dimethyl-4(1H)-quinazolinone], the melting point was 238 to 240 °C.
`CN1CN(C(=O)c2cc(C(F)(F)F)nn2-c2ncccc2Cl)c2c(Cl)cc(Cl)cc2C1=O` [Compound 13, 6,8-Dichloro-1-[[1-(3-Chloro-2-pyridinyl)-3-(trifluoromethyl)-1H-pyrazol-5-yl]carbonyl]-2,3-dihydro-3-methyl-4(1H)-quinazolinone]: the mortality at 250 ppm in data set [1], in data set [2], in data set [4] and in data set [3] was not below 80% each time.
For `CN1CN(C(=O)c2cc(Br)nn2-c2ncccc2Cl)c2c(Cl)cc(Cl)cc2C1=O` [Compound 12, 1-[[3-Bromo-1-(3-Chloro-2-pyridinyl)-1H-pyrazol-5-yl]carbonyl]-6,8-dichloro-2,3-dihydro-3-methyl-4(1H)-quinazolinone], the mortality at 250 ppm in data set [1], in data set [2], in data set [4] and in data set [3] was not below 80% throughout.
For the compound `Cc1cc(Cl)cc2c1N(C(=O)c1cc(C(F)(F)F)nn1-c1ncccc1Cl)CN(C)C2=O` [Compound 19, 6-Chloro-1-[[1-(3-Chloro-2-pyridinyl)-3-(tifluoromethyl)-1H-pyrazol-5-yl]carbonyl]-2,3-dihydro-3,8-dimethyl-4(1H)-quinazolinone], the mortality at 250 ppm in data set [1], in data set [2] and in data set [3] was not below 80% throughout.
Consider `Cc1cc(Cl)cc2c1N(C(=O)c1cc(C(F)(F)F)nn1-c1ncccc1Cl)CN(C(C)C)C2=O` [Compound 16, 6-Chloro-1-[[1-(3-Chloro-2-pyridinyl)-3-(trifluoromethyl)-1H-pyrazol-5-yl]carbonyl]-2,3-dihydro-8-methyl-3-(1-methylethyl)-4(1H)-quinazolinone], for which the mortality at 250 ppm in data set [2] and in data set [3] was not below 80% in each case.
As to `CN1CN(C(=O)c2cc(Cl)nn2-c2ncccc2Cl)c2c(Cl)cc(Cl)cc2C1=O` [Compound 11, 6-8-Dichloro-1-[[3-Chloro-1-(3-Chloro-2-pyridinyl)-1H-pyrazol-5-yl]carbonyl]-2,3-dihydro-3-methyl-4(1H)-quinazolinone], the mortality at 250 ppm in data set [1], in data set [2] and in data set [3] was not below 80% in each case.
Consider `CC(C)N1CN(C(=O)c2cc(Br)nn2-c2ncccc2Cl)c2c(Cl)cc(Cl)cc2C1=O` [Compound 9, 1-[[3-Bromo-1-(3-Chloro-2-pyridinyl)-1H-pyrazol-5-yl]carbonyl]-6,8-dichloro-2,3-dihydro-3-(1-methylethyl)-4-(1H)-quinazolinone], for which the mortality at 250 ppm in data set [1], in data set [2] and in data set [3] was not below 80% each time.
On to `O=C1c2cc(Cl)cc(Cl)c2N(C(=O)c2cc(Cl)nn2-c2ncccc2Cl)C(c2c[nH]cn2)N1Cl` (centres unmarked) [Compound 24], for which the mortality at 250 ppm in data set [3] is not below 80%.
The compound `CC(C)N1CN(C(=O)c2cc(C(F)(F)F)nn2-c2ncccc2Cl)c2c(Cl)cc(Cl)cc2C1=O` [Compound 10, 6,8-Dichloro-1-[[1-(3-Chloro-2-pyridinyl)-3-(trifluoromethyl)-1H-pyrazol-5-yl]carbonyl]-2,3-dihydro-3-(1-methylethyl)-4(1H)-quinazolinone] came in with a mortality at 250 ppm in data set [3] not below 80%.
In the case of `Cc1cccc2c1N(C(=O)c1cc(Cl)nn1-c1ncccc1Cl)C(C(=O)O)N(C(C)C)C2=O` (centres unmarked) [Compound 20], the melting point was 143 to 190 °C.
For `O=C1NCN(C(=O)c2cc(Cl)nn2-c2ncccc2Cl)c2c(Cl)cc(Cl)cc21` [Compound 28, 6,8-Dichloro-1-[[3-Chloro-1-(3-Chloro-2-pyridinyl)-1H-pyrazol-5-yl]carbonyl]-2,3-dihydro-4(1H)-quinazolinone], the mortality at 250 ppm in data set [1] is not below 80%.
In the case of `Cc1cc(Cl)cc2c1N(C(=O)c1cc(Br)nn1-c1ncccc1Cl)CN(C)C2=O` [Compound 18, 1-[[3-Bromo-1-(3-Chloro-2-pyridinyl)-1H-pyrazol-5-yl]carbonyl]-6-Chloro-2,3-dihydro-3,8-dimethyl-4(1H)-quinazolinone], the melting point was 254 to 255 °C.
In the case of `O=C1NCN(C(=O)c2cc(C(F)(F)F)nn2-c2ncccc2Cl)c2c(Cl)cc(Cl)cc21` [Compound 29, 6,8-Dichloro-1-[[1-(3-Chloro-2-pyridinyl)-3-(trifluoromethyl)-1H-pyrazol-5-yl]carbonyl]-2,3-dihydro-4(1H)-quinazolinone], the mortality at 250 ppm in data set [1], in data set [2] and in data set [3] was not below 80% each time.

These data come from US7241767B2, “Quinazoline(di)ones for invertebrate pest control” (E. I. du Pont de Nemours and Company, priority 2002, dated 2007).
